In patent US20240293579A1, “Composition Comprising Trim31 and Rhbdf2 for Treatment of NAFLD/NASH” (CHONGQING MEIPULAN TECHNOLOGY CO., LTD, priority 2021, published 2024):
Counter-ions that a name gives are not always drawn.

system: TRIM31 mRNA; assay: TRIM31 mRNA expression by RT-qPCR in PA/OA-induced L02 cells; format: cell-based, human; conditions: 100 μmol/L compound; PA/OA-induced L02 cells; RT-qPCR
Method: Palmitic acid/oleic acid (PA/OA) was used to induce the decrease of TRIM31 mRNA expression in human hepatocyte L02 cells. The cells were divided into control group and drug group. The drug group was treated with a concentration of 100 μmol/L compound, and the expression level of TRIM31 mRNA was detected by RT-qPCR. The expression level of TRIM31 mRNA in the drug group divided by that in the control group (Qdrug/Qctrl) was used to evaluate the ability of the compounds to promote TRIM31 expression. […]

Q: Which “Qdrug/Qctrl (TRIM31 mRNA expression level, drug group divided by control group)” value does the source give for `Oc1cc(O)c2c(c1)O[C@H](c1cc(O)c(O)c(O)c1)[C@H](O)C2` [(−)-epigallocatechin] here?
A: The value was 2.71 fold.

Q: Which “Qdrug/Qctrl (TRIM31 mRNA expression level, drug group divided by control group)” value does the source give for `Oc1ccc([C@H]2Oc3cc(O)cc(O)c3C[C@@H]2O)cc1` [Afzelechin] here?
A: The value was 3.12 fold.

Q: `CC1(C)[C@@H](O[C@H]2O[C@H](C(=O)O)[C@@H](O)[C@H](O)[C@H]2O[C@@H]2O[C@H](C(=O)O)[C@@H](O)[C@H](O)[C@H]2O)CC[C@]2(C)[C@H]3C(=O)C=C4[C@@H]5C[C@@](C)(C(=O)O)CC[C@]5(C)CC[C@@]4(C)[C@]3(C)CC[C@@H]12` [Glycyrrhizinic acid] was tested. Which “Qdrug/Qctrl (TRIM31 mRNA expression level, drug group divided by control group)” value did it give?
A: Its value is 1.86 fold.

Q: `COc1cc2c(cc1O)CC[n+]1cc3c(OC)c(OC)ccc3cc1-2` [Jateorhizine] was tested. Which “Qdrug/Qctrl (TRIM31 mRNA expression level, drug group divided by control group)” value did it give?
A: Its value is 1.72 fold.

Q: How did the “Qdrug/Qctrl (TRIM31 mRNA expression level, drug group divided by control group)” value turn out when `O=C1C[C@@H](c2ccc(O)cc2)Oc2cc(O)ccc21` [Liquiritigenin] was run?
A: The value was 2.79 fold.

Q: With `CC(C)=CCc1c(-c2ccc(O)cc2O)oc2c(CC=C(C)C)c(O)cc(O)c2c1=O` [Mulberrin] as the compound, how does the “Qdrug/Qctrl (TRIM31 mRNA expression level, drug group divided by control group)” value read?
A: Its value is 3.74 fold.

same assay, conditions: Homo sapiens, L02, read-out: Qdrug/Qctrl (TRIM31 mRNA expression level, drug group divided by control group)

Q: Which fold induction at 100 µM does the source give for `O=c1cc(-c2ccc(O)cc2)oc2cc(O)cc(O)c12` [Apigenin] here?
A: The fold induction at 100 µM was 3.21.

Q: How did the fold induction at 100 µM turn out when `O=c1cc(-c2ccccc2)oc2cc(O)c(O)c(O)c12` [Baicalein] was run?
A: The fold induction at 100 µM was 3.53.

Q: How did the fold induction at 100 µM turn out when `COc1ccc2cc3[n+](cc2c1OC)CCc1cc2c(cc1-3)OCO2` [Berberine, reference compound] was run?
A: The fold induction at 100 µM was 1.32.

Q: Which fold induction at 100 µM does the source give for `COC(=O)c1cc(OC)c2c(c1-c1c(C(=O)OC)cc(OC)c3c1OCO3)OCO2` [Bifendate, reference compound] here?
A: Its fold induction at 100 µM is 1.76.

Q: `CN1Cc2c(ccc3c2OCO3)[C@@H]2[C@H]1c1cc3c(cc1C[C@@H]2O)OCO3` [Chelidonine] was tested. Which fold induction at 100 µM did it give?
A: The fold induction at 100 µM was 1.53.

Q: With `O=C(/C=C/c1ccc(O)c(O)c1)O[C@@H]1C[C@](O)(C(=O)O)C[C@@H](O)[C@H]1O` [Chlorogenic acid] as the compound, how does the fold induction at 100 µM read?
A: Its fold induction at 100 µM is 2.42.

Q: `O=c1cc(-c2ccccc2)oc2cc(O)cc(O)c12` [Chrysin] was tested. Which fold induction at 100 µM did it give?
A: Its fold induction at 100 µM is 2.89.

Q: With `COc1cc2c(c(OC)c1OC)-c1ccc(OC)c(=O)cc1[C@@H](NC(C)=O)CC2` [Colchicine, reference compound] as the compound, how does the fold induction at 100 µM read?
A: Its fold induction at 100 µM is 1.32.

Q: With `COc1cc(/C=C/C(=O)CC(=O)/C=C/c2ccc(O)c(OC)c2)ccc1O` [Curcumin] as the compound, how does the fold induction at 100 µM read?
A: Its fold induction at 100 µM is 2.83.

Q: With `Oc1cc(O)c2cc(O)c(-c3ccc(O)c(O)c3)[o+]c2c1` [Cyanidin] as the compound, how does the fold induction at 100 µM read?
A: The fold induction at 100 µM was 2.97.

Q: `C=C(CO)C(=O)O[C@H]1CC(=C)[C@@H]2C[C@H](O)C(=C)[C@@H]2[C@H]2OC(=O)C(=C)[C@@H]21` [Cynaropicrin] was tested. Which fold induction at 100 µM did it give?
A: Its fold induction at 100 µM is 3.35.

Q: For `O=c1c(-c2ccc(O)cc2)coc2cc(O)ccc12` [Daidzein], which fold induction at 100 µM is on record?
A: The fold induction at 100 µM was 2.66.

Q: `O=C1c2c(O)cc(O)cc2O[C@H](c2ccc(O)c(O)c2)[C@H]1O` [Dihydroquercetin] was tested. Which fold induction at 100 µM did it give?
A: The fold induction at 100 µM was 3.32.

Q: For `Oc1cc(O)c2c(c1)O[C@H](c1ccc(O)c(O)c1)[C@H](O)C2` [Epicatechin], which fold induction at 100 µM is on record?
A: Its fold induction at 100 µM is 2.92.

Q: With `COc1cc(/C=C/C(=O)O)ccc1O` [Ferulic acid] as the compound, how does the fold induction at 100 µM read?
A: Its fold induction at 100 µM is 2.51.

Q: With `COc1ccc([C@@H]2CC(=O)c3c(O)cc(O)cc3O2)cc1O` [Hesperetin] as the compound, how does the fold induction at 100 µM read?
A: Its fold induction at 100 µM is 3.06.

Q: How did the fold induction at 100 µM turn out when `COc1cc(-c2oc3cc(O)cc(O)c3c(=O)c2O)ccc1O` [Isorhamnetin] was run?
A: The fold induction at 100 µM was 2.77.

Q: Which fold induction at 100 µM does the source give for `O=c1c(O)c(-c2ccc(O)cc2)oc2cc(O)cc(O)c12` [Kaempferol] here?
A: Its fold induction at 100 µM is 3.26.

Q: With `COc1cc2nccc(Oc3ccc(NC(=O)NC4CC4)c(Cl)c3)c2cc1C(N)=O` [Lenvatinib, reference compound] as the compound, how does the fold induction at 100 µM read?
A: Its fold induction at 100 µM is 2.75.

Q: With `COc1cc(C(=O)OCCCCNC(=N)N)cc(OC)c1O` [Leonurine] as the compound, how does the fold induction at 100 µM read?
A: The fold induction at 100 µM was 1.51.

Q: Which fold induction at 100 µM does the source give for `CN(C)C(=N)N=C(N)N` [Metformin, reference compound] here?
A: Its fold induction at 100 µM is 2.45.

Q: How did the fold induction at 100 µM turn out when `O=c1c(O)c(-c2cc(O)c(O)c(O)c2)oc2cc(O)cc(O)c12` [Myricetin] was run?
A: Its fold induction at 100 µM is 3.25.

Q: With `O=C1C[C@@H](c2ccc(O)cc2)Oc2cc(O)cc(O)c21` [Naringenin] as the compound, how does the fold induction at 100 µM read?
A: The fold induction at 100 µM was 3.02.

same assay, conditions: Homo sapiens; 100 μmol/L compound; PA/OA-induced L02 cells; RT-qPCR; read-out: Qdrug/Qctrl (TRIM31 mRNA expression level, drug group divided by control group)

Q: Which fold induction at 100 µM does the source give for `COc1cc2c(c3c1c(=O)c1ccccc1n3C)C=CC(C)(C)O2` [Acronycine] here?
A: The fold induction at 100 µM was 1.43.

Q: For `C[S+](CC[C@H](N)C(=O)[O-])C[C@H]1O[C@@H](n2cnc3c(N)ncnc32)[C@H](O)[C@@H]1O` (some centres unmarked) [Ademetionine, reference compound], which fold induction at 100 µM is on record?
A: Its fold induction at 100 µM is 2.55.

Q: For `O=c1cc(-c2ccc(O)cc2)oc2cc(O[C@@H]3O[C@H](CO)[C@@H](O)[C@H](O)[C@H]3O[C@@H]3OC[C@](O)(CO)[C@H]3O)cc(O)c12` [Apiin], which fold induction at 100 µM is on record?
A: Its fold induction at 100 µM is 3.22.

Q: `O=C(O)[C@H]1O[C@@H](Oc2cc3oc(-c4ccccc4)cc(=O)c3c(O)c2O)[C@H](O)[C@@H](O)[C@@H]1O` [Baicalin] was tested. Which fold induction at 100 µM did it give?
A: Its fold induction at 100 µM is 2.98.

Q: For `COC(=O)c1cc(OC)c2c(c1-c1c(CO)cc(OC)c3c1OCO3)OCO2` [Bicyclol, reference compound], which fold induction at 100 µM is on record?
A: Its fold induction at 100 µM is 2.45.

Q: For `CC[C@@]1(O)C(=O)OCc2c1cc1n(c2=O)Cc2cc3ccccc3nc2-1` [Camptothecin], which fold induction at 100 µM is on record?
A: The fold induction at 100 µM was 2.13.

Q: How did the fold induction at 100 µM turn out when `C[C@H](CCC(=O)O)[C@H]1CC[C@H]2[C@@H]3[C@H](O)C[C@@H]4C[C@H](O)CC[C@]4(C)[C@H]3CC[C@]12C` [Chenodeoxycholic acid, reference compound] was run?
A: Its fold induction at 100 µM is 2.54.

Q: With `O=C(/C=C/c1ccc(O)c(O)c1)O[C@@H]1C[C@@](OC(=O)/C=C/c2ccc(O)c(O)c2)(C(=O)O)C[C@@H](O)[C@@H]1O` [Cynarin] as the compound, how does the fold induction at 100 µM read?
A: The fold induction at 100 µM was 2.56.

Q: For `Oc1cc(O)c2cc(O)c(-c3cc(O)c(O)c(O)c3)[o+]c2c1` [Delphinidin], which fold induction at 100 µM is on record?
A: Its fold induction at 100 µM is 2.49.

Q: For `COc1ccc(-c2cc(=O)c3c(O)cc(O)cc3o2)cc1O` [Diosmetin], which fold induction at 100 µM is on record?
A: The fold induction at 100 µM was 3.41.

Q: How did the fold induction at 100 µM turn out when `O=c1c(O)c(-c2ccccc2)oc2cc(O)cc(O)c12` [Galangin] was run?
A: The fold induction at 100 µM was 2.81.

Q: For `O=c1c(-c2ccc(O)cc2)coc2cc(O)cc(O)c12` [Genistein], which fold induction at 100 µM is on record?
A: Its fold induction at 100 µM is 2.73.

Q: For `CC1(C)[C@@H](O[C@H]2O[C@H](C(=O)O)[C@@H](O)[C@H](O)[C@H]2O[C@@H]2O[C@H](C(=O)O)[C@@H](O)[C@H](O)[C@H]2O)CC[C@]2(C)[C@H]3C(=O)C=C4[C@@H]5C[C@@](C)(C(=O)O)CC[C@]5(C)CC[C@@]4(C)[C@]3(C)CC[C@@H]12` [Glycyrrhizic Acid Monoammonium Salt], which fold induction at 100 µM is on record?
A: The fold induction at 100 µM was 1.72.

Q: How did the fold induction at 100 µM turn out when `COc1ccc(-c2oc3c(CC=C(C)C)c(O[C@@H]4O[C@H](CO)[C@@H](O)[C@H](O)[C@H]4O)cc(O)c3c(=O)c2O[C@@H]2O[C@@H](C)[C@H](O)[C@@H](O)[C@H]2O)cc1` [Icariin] was run?
A: The fold induction at 100 µM was 3.33.

Q: With `O=c1c(O[C@@H]2O[C@@H](CO)[C@H](O)[C@H]2O)c(-c2ccc(O)cc2)oc2cc(O)cc(O)c12` [Juglanin] as the compound, how does the fold induction at 100 µM read?
A: The fold induction at 100 µM was 2.95.

Q: For `Nc1cccc2c1CN(C1CCC(=O)NC1=O)C2=O` (centres unmarked) [Lenalidomide, reference compound], which fold induction at 100 µM is on record?
A: The fold induction at 100 µM was 1.43.

Q: For `O=c1cc(-c2ccc(O)c(O)c2)oc2cc(O)cc(O)c12` [Luteolin], which fold induction at 100 µM is on record?
A: Its fold induction at 100 µM is 3.09.

Q: `O[C@H]1[C@H]2c3cc4c(cc3CN3CCC(=C[C@@H]1O)[C@H]23)OCO4` [Lycorine] was tested. Which fold induction at 100 µM did it give?
A: Its fold induction at 100 µM is 2.26.

Q: How did the fold induction at 100 µM turn out when `COc1ccc2c(c1O)-c1c(O)c(OC)cc3c1[C@H](C2)[N+](C)(C)CC3` [Magnoflorine] was run?
A: Its fold induction at 100 µM is 1.38.

Q: Which fold induction at 100 µM does the source give for `O=c1c(O)c(-c2ccc(O)cc2O)oc2cc(O)cc(O)c12` [Morin] here?
A: The fold induction at 100 µM was 2.86.

Q: With `O=C1CCC[C@@H]2[C@H]3CCC[N+]4([O-])CCC[C@@H](CN12)[C@@H]34` (some centres unmarked) [Oxymatrine] as the compound, how does the fold induction at 100 µM read?
A: The fold induction at 100 µM was 1.15.
